Measurements taken from patent publication US8143255B2, “Heteroalkyl linked pyrimidine derivatives” (S*BIO Pte Ltd., priority 2005, dated 2012).

Legend:
[1] = tested on: HL60 (acute myeloid leukemia cell line); experiment: Cell-based proliferation assay, HL60; details: Homo sapiens, HL-60; HL60 cells, 96 h treatment
Procedure: (§1) Human cancer cell lines HL60 (acute myeloid leukemia cell line), Colo205 (colon adenocarcinoma cell line), HEL92.1.7 (erythroleukemia cell line), MV4-11 (acute myeloid leukemia cell line) and DU145 (metastatic prostate cancer cell line) were obtained from ATCC. They were cultivated in the media according to the ATCC work instructions. Colo205 and DU145 cells were seeded in 96-wells plate 5000 cells per cell and 1000 cells per well respectively. HEL92.1.7 and MV4-11 cells were seeded at 6000 cells per well while HL60 cells were seeded at 8000 cells per well in 96 well plate. The plates were incubated at 37° C., 5% CO2, for 24 h. Cells were treated with compounds at various concentrations for 96 h. Cell growth was then monitored using Celltiter96 Aqueous One Solution Cell Proliferation Assay from Promega (Madison Wis.). Dose response curves were plotted to determine GI50 values for the compounds using XL-fit (ID Business Solution, Emeryville, Calif.).

[2] = tested on: HEL92.1.7 (erythroleukemia cell line); experiment: Cell-based proliferation assay, HEL92.1.7; details: Homo sapiens, HEL 92.1.7; HEL92.1.7 cells, 96 h treatment
Procedure: as §1

[3] = tested on: MV4-11 (acute myeloid leukemia cell line); experiment: Cell-based proliferation assay, MV4-11; details: Homo sapiens; MV4-11 cells, 96 h treatment
Procedure: as §1

FLT3 = biological target: T1, FLT3 (Homo sapiens, UniProt P36888); experiment: In vitro kinase activity assay (PKLight), FLT3; assay type: biochemical; details: recombinant FLT3, poly(Glu,Tyr) substrate, 4 μM ATP
T1 construct: purchased Invitrogen PV3182
T1 sequence (P36888 27-993): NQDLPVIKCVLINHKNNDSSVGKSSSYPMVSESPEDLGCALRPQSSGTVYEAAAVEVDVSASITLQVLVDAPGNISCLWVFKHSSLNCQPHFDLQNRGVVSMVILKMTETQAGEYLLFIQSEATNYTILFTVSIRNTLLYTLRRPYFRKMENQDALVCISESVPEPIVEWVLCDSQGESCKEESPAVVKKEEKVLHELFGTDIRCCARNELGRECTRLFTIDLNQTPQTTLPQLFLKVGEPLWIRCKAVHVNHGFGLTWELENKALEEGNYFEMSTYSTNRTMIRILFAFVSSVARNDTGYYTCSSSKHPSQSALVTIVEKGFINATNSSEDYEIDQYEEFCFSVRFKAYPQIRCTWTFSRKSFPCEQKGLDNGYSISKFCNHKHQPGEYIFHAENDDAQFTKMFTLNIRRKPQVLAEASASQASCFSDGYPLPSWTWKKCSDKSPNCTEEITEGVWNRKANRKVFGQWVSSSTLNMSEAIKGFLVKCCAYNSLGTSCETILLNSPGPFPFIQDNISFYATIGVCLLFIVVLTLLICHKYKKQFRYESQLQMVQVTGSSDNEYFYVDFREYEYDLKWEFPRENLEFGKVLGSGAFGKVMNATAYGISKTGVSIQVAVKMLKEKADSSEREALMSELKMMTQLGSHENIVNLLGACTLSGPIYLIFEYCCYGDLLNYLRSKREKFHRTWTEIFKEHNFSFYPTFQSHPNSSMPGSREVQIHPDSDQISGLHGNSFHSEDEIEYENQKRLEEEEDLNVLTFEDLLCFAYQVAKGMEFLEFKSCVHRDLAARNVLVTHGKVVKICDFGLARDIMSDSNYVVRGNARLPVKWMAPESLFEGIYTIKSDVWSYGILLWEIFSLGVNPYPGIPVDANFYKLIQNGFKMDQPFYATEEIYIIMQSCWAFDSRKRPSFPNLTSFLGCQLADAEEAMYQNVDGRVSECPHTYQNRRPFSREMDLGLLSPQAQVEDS
Procedure: The recombinant enzymes (CDK2/CyclinA, FLT3, JAK2 and JAK2 V617F) were purchased from Invitrogen (Cat # PV3267, 3182, 4210 and 4347 respectively). All assays were carried out in 384-well white microtiter plates using the PKLight assay system from Cambrex (East rutherford, N.J.). This assay platform is essentially a luminometdc assay for the detection of ATP in the reaction using a luciferase-coupled reaction. For CDK2/Cyclin A assay, the reaction mixture consisted of the following components in 25 μL assay buffer (50 mM Hepes pH 7.5, 10 mM MgCl2, 5 mM MnCl2, 5 mM BGP, 1 mM DTT, 0.1 mM sodium orthovanadate), 1.4 μg/mL of CDK2/Cyclin A complex, 0.5 μM of RbING substrate (Invitrogen, Cat # PV2939) and 0.5 μM of ATP. The compounds were tested at 8 concentrations prepared from 4-fold serial dilution starting at 10 μM. The reaction was incubated at room temperature for 2 hr. 13 μL of PKLight ATP detection reagent was added and the reaction was incubated for 10 min. Luminescence signals were detected on a multi-label plate reader (Victor^2 V 1420, Perkin-Elmer). The other kinase assays were identical except for the following differences in reagents. For FLT3 assays, the reaction contained 2.0 μg/mL FLT3 enzyme, 5 μM of poly(Glu,Tyr) substrate (Sigma, Cat # P0275) and 4 μM of ATP. For JAK2 assays, the reaction contained 0.6 μg/mL of JAK2 enzyme, 2 μM of poly(Glu,Ala,Tyr) substrate (Sigma, Cat # P3899) and 0.2 μM of ATP. For JAK2 V617F mutant assays, the reaction contained 8.0 μg/mL of JAK2 mutant enzyme, 2 μM of poly(Glu,Ala,Tyr) substrate (Sigma, Cat # P3899) and 0.2 μM of ATP. The analytical software, Prism 4.0 (GraphPad Software Pte Ltd) was used to generate IC50 values from the data. […] IC50 values are shown below in Table 3.

[4] = tested on: Colo205 (colon adenocarcinoma cell line); experiment: Cell-based proliferation assay, Colo205; details: Homo sapiens, COLO 205; Colo205 cells, 96 h treatment
Procedure: as §1

CDK2/CyclinA = biological target: T2, CDK2/CyclinA (Homo sapiens, UniProt P24941); experiment: In vitro kinase activity assay (PKLight), CDK2/Cyclin A; assay type: biochemical; details: recombinant CDK2/Cyclin A, RbING substrate, 0.5 μM ATP, 2 hr
T2 construct: purchased Invitrogen PV3267
Procedure: (§2) All assays were carried out in 384-well white microtiter plates using the PKLight assay system from Cambrex (East rutherford, N.J.). This assay platform is essentially a luminometdc assay for the detection of ATP in the reaction using a luciferase-coupled reaction. For CDK2/Cyclin A assay, the reaction mixture consisted of the following components in 25 μL assay buffer (50 mM Hepes pH 7.5, 10 mM MgCl2, 5 mM MnCl2, 5 mM BGP, 1 mM DTT, 0.1 mM sodium orthovanadate), 1.4 μg/mL of CDK2/Cyclin A complex, 0.5 μM of RbING substrate (Invitrogen, Cat # PV2939) and 0.5 μM of ATP. The compounds were tested at 8 concentrations prepared from 4-fold serial dilution starting at 10 μM. The reaction was incubated at room temperature for 2 hr. 13 μL of PKLight ATP detection reagent was added and the reaction was incubated for 10 min. Luminescence signals were detected on a multi-label plate reader (Victor^2 V 1420, Perkin-Elmer). The other kinase assays were identical except for the following differences in reagents. For FLT3 assays, the reaction contained 2.0 μg/mL FLT3 enzyme, 5 μM of poly(Glu,Tyr) substrate (Sigma, Cat # P0275) and 4 μM of ATP. For JAK2 assays, the reaction contained 0.6 μg/mL of JAK2 enzyme, 2 μM of poly(Glu,Ala,Tyr) substrate (Sigma, Cat # P3899) and 0.2 μM of ATP. […] The analytical software, Prism 4.0 (GraphPad Software Pte Ltd) was used to generate IC50 values from the data.

[5] = tested on: DU145 (metastatic prostate cancer cell line); experiment: Cell-based proliferation assay, DU145; details: Homo sapiens, DU-145; DU145 cells, 96 h treatment
Procedure: as §1

JAK2 = biological target: T3, JAK2 (Homo sapiens, UniProt O60674); experiment: In vitro kinase activity assay (PKLight), JAK2; assay type: biochemical; details: recombinant JAK2, poly(Glu,Ala,Tyr) substrate, 0.2 μM ATP
T3 construct: purchased Invitrogen PV4210
T3 sequence (O60674 whole entry): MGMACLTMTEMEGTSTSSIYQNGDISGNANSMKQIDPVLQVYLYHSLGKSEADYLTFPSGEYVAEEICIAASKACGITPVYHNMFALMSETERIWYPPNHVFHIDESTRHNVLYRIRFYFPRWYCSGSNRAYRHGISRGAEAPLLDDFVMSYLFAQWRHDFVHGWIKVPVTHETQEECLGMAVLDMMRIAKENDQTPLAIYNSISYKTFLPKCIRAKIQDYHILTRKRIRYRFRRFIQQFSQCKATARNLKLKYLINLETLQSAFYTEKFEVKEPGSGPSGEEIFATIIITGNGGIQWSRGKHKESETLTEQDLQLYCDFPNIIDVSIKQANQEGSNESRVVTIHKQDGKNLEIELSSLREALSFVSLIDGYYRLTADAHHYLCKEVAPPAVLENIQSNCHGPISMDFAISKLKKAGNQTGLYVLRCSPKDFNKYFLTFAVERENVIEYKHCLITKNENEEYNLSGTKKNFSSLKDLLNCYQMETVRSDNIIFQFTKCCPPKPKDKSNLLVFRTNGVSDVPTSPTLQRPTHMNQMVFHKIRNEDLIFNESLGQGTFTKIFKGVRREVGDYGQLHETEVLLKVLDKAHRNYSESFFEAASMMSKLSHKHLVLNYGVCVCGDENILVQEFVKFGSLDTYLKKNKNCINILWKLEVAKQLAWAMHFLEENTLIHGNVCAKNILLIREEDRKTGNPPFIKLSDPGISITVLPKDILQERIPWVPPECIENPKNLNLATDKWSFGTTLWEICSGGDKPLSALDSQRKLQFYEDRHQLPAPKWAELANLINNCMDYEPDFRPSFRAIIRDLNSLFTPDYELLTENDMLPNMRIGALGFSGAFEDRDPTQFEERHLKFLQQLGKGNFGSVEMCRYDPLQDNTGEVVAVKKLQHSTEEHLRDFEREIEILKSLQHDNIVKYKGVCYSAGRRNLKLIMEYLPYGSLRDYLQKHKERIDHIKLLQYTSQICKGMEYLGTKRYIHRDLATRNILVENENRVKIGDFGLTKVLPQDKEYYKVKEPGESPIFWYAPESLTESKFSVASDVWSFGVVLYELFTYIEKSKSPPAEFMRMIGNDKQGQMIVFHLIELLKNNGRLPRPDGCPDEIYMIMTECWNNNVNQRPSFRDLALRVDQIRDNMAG
Procedure: as §2

| Compound | GI50 [1] [nM] | GI50 [2] [nM] | GI50 [3] [nM] | IC50 (FLT3) [nM] | GI50 [4] [nM] | IC50 (CDK2/CyclinA) [nM] | GI50 [5] [nM] | IC50 (JAK2) [nM] |
| --- | --- | --- | --- | --- | --- | --- | --- | --- |
| O=C1CC/C=C/COCc2cccc(c2)Nc2nccc(n2)-c2cccc(c2)N1 [Compound 4] | > 5000 | > 5000 | 1000 to 5000 | > 5000 | > 5000 | 1000 to 5000 | > 5000 | > 5000 |
| CN1C/C=C/CC(=O)Nc2cccc(c2)-c2ccnc(n2)Nc2cccc(c2)C1 [Compound 14] | > 5000 | > 5000 | 1000 to 5000 | 1000 to 5000 | > 5000 | 1000 to 5000 | – | > 5000 |
| C1=C/CNCc2cccc(c2)Nc2nccc(n2)-c2cccc(c2)OCC/1 [Compound 22] | – | – | – | ≤ 1000 | – | ≤ 1000 | – | – |
| C1=C/CN(C2CC2)Cc2cccc(c2)Nc2nccc(n2)-c2cccc(c2)OCC/1 [Compound 25] | – | – | – | ≤ 1000 | – | ≤ 1000 | – | ≤ 1000 |
| Cc1cnc2nc1-c1cccc(c1)OCC/C=C/CN(C)Cc1cccc(c1)N2 [Compound 27] | ≤ 1000 | ≤ 1000 | ≤ 1000 | ≤ 1000 | 1000 to 5000 | ≤ 1000 | 1000 to 5000 | ≤ 1000 |
| C1=C\CNCc2cccc(c2)Nc2nccc(n2)-c2cccc(c2)OCC/1 [Compound 29] | – | – | – | ≤ 1000 | – | ≤ 1000 | – | – |
| CN1C/C=C/COCC2=CC=C(O2)c2ccnc(n2)Nc2cccc(c2)C1 [Compound 62] | ≤ 1000 | 1000 to 5000 | ≤ 1000 | ≤ 1000 | 1000 to 5000 | ≤ 1000 | – | ≤ 1000 |
| CN1C/C=C/COCC2=CC=C(S2)c2ccnc(n2)Nc2ccc(OCCN3CCCC3)c(c2)C1 [Compound 74] | ≤ 1000 | ≤ 1000 | ≤ 1000 | ≤ 1000 | – | ≤ 1000 | – | ≤ 1000 |

Other lines, results leading:

| GI50 [1] [nM] | GI50 [2] [nM] | GI50 [3] [nM] | IC50 (FLT3) [nM] | GI50 [4] [nM] | IC50 (CDK2/CyclinA) [nM] | GI50 [5] [nM] | IC50 (JAK2) [nM] | Compound |
| --- | --- | --- | --- | --- | --- | --- | --- | --- |
| ≤ 1000 | – | > 5000 | ≤ 1000 | ≤ 1000 | ≤ 1000 | – | ≤ 1000 | CN1C/C=C/CCOc2cccc(c2)-c2ccnc(n2)Nc2ccc(OCCN3CCOCC3)c(c2)C1 [Compound 13] |
| ≤ 1000 | ≤ 1000 | ≤ 1000 | ≤ 1000 | ≤ 1000 | ≤ 1000 | ≤ 1000 | ≤ 1000 | CN1C/C=C/CCOc2cc(F)cc(c2)-c2ccnc(n2)Nc2cccc(c2)C1 [Compound 35] |
| ≤ 1000 | – | – | ≤ 1000 | 1000 to 5000 | ≤ 1000 | – | ≤ 1000 | CN1C/C=C/CCOc2cc(ccc2N)-c2ccnc(n2)Nc2cccc(c2)C1 [Compound 38] |
| 1000 to 5000 | 1000 to 5000 | 1000 to 5000 | > 5000 | – | 1000 to 5000 | – | > 5000 | CN1C/C=C/CCOc2cccc(c2)-c2ccnc(n2)Nc2cc(ccn2)C1 [Compound 44] |
| ≤ 1000 | ≤ 1000 | ≤ 1000 | ≤ 1000 | – | ≤ 1000 | – | ≤ 1000 | CN1C/C=C/CCOc2cccc(c2)-c2ccnc(n2)Nc2ccc(OCCN3CCCCC3)c(c2)C1 [Compound 46] |
| ≤ 1000 | ≤ 1000 | ≤ 1000 | ≤ 1000 | – | ≤ 1000 | – | ≤ 1000 | CN1C/C=C/CCOc2cccc(c2)-c2ccnc(n2)Nc2ccc(OCCn3cncn3)c(c2)C1 [Compound 61] |
| ≤ 1000 | ≤ 1000 | ≤ 1000 | ≤ 1000 | ≤ 1000 | ≤ 1000 | – | ≤ 1000 | CCS(=O)(=O)CCOc1ccc2cc1CN(C)C/C=C/CCOc1cccc(c1)-c1ccnc(n1)N2 [Compound 70] |
| ≤ 1000 | ≤ 1000 | ≤ 1000 | ≤ 1000 | – | ≤ 1000 | – | ≤ 1000 | CN1C/C=C/CCOc2cccc(c2)-c2ccnc(n2)Nc2cc(N)cc(c2)C1 [Compound 81] |
